Numbered stars: 1 amine (or outer) side, 2 acyl side, 3 side chain; on linkers, the order of the positions; unused ones are H or OH. Bridge positions count the residues as written; N and C are the ends. Peptide text beside a SMILES is read from it. * marks the point of attachment. Suberoyl(Gly)2 = O=C(CCCCCCC(=O)NCC(=O)[*:2])NCC(=O)[*:1]; Suberoyl = O=C(CCCCCCC(=O)[*:2])[*:1]; Myristoyl = CCCCCCCCCCCCCC(=O)*; Suc = O=C(CCC(=O)[*:2])[*:1]
Tests used:
[1] = target: T1, human recombinant His6-SIRT1 or GST-SIRT1 (Homo sapiens, UniProt Q96EB6); assay: HPLC-based sirtuin deacylation activity assay, SIRT1; format: biochemical; conditions: substrate activity with SIRT1; 50 mM Hepes pH 8.0, 0.5 mM β-NAD+, SIRT1 243 nM, 37 °C, 5 min, HPLC 214 nm, Michaelis-Menten fit
T1 construct: His6 or GST (two alternative purchased preparations, not both on one protein); purchased Sigma-Aldrich China (His6-SIRT1); Cayman Chemical (GST-SIRT1)
T1 sequence (Q96EB6 1-747): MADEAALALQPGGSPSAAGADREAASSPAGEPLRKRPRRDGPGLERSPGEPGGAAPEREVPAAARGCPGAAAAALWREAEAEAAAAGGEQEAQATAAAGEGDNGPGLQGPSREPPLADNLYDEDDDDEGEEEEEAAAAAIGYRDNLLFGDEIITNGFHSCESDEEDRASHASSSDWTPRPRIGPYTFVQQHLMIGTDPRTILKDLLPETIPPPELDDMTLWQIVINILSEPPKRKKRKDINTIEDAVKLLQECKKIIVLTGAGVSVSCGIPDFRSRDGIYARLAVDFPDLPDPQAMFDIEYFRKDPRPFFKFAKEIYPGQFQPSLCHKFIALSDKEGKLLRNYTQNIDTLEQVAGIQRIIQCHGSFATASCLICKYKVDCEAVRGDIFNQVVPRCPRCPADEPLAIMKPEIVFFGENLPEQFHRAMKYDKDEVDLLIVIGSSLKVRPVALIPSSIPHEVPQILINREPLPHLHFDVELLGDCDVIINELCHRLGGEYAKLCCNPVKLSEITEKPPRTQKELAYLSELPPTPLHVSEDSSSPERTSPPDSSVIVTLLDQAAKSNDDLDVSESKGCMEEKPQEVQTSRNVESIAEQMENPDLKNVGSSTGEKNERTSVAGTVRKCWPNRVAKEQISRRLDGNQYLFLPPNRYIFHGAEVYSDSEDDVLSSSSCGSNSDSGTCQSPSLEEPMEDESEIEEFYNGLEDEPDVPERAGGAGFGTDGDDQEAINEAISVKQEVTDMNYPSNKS
Procedure: The steady-state kinetic parameters (kcat and KM) for the SIRT1/2/3 substrate activities of the purified 5–8 were determined with a HPLC-based sirtuin deacylation activity assay and are recorded in Table 2 and Table 3. As judged by kcat/KM ratios, cyclic peptides 5–8 were all found to be excellent SIRT1 substrates, actually 5, 7, and 8 are all better SIRT1 substrates than the linear hexapeptide-based SIRT1 substrate 3 (depicted in Figure 2) reported in the current literature (kcat/KM = 800 M^−1 s^−1). Cyclic peptides 5–8 were also all found to be better SIRT3 substrates than the linear hexapeptide-based SIRT3 substrate 3 reported in the current literature (kcat/KM = 990 M^−1·s^−1).
The following materials were obtained from commercial sources for the in vitro sirtuin deacylation activity assay and the pronase digestion assay, and were used as received. Sigma-Aldrich China: the active human recombinant His6-SIRT1, Trizma, Hepes, β-NAD^+, a 1.0 M solution of MgCl2 (molecular-biology grade), the pronase from Streptomyces griseus; Cayman Chemical (Ann Arbor, MI, USA): the active human recombinant GST-SIRT1, the active human recombinant His6-SIRT2, the active human recombinant His6-SIRT3; TCI Shanghai: DL-dithiothreitol (DTT); Alfa Aesar China: NaCl, KCl.
A sirtuin deacylation assay solution contained the following: 50 mM Hepes (pH 8.0), 137 mM NaCl, 2.7 mM KCl, 1 mM MgCl2, 1 mM DTT, β-NAD^+ (~5.6 × KM: 0.5 mM for the SIRT1 and SIRT2 assays, 3.5 mM for the SIRT3 assay), one test compound (5, 6, 7, or 8) with varied concentrations including 0, and a sirtuin (His6-SIRT1 or GST-SIRT1, 243 nM; His6-SIRT2, 297 nM; or His6-SIRT3, 739 nM). An enzymatic reaction was initiated by the addition of a sirtuin at 37 °C and was incubated at 37 °C for 5 min (for the SIRT1 assay) or 2 min (for the SIRT2 and SIRT3 assays) until quenched with the following stop solution: 100 mM HCl and 0.16 M acetic acid. The quenched assay solutions were directly injected into a C18 column (0.46 × 25 cm, 5 μm), and the column was eluted with a gradient of ddH2O containing 0.05% (v/v) TFA and acetonitrile containing 0.05% (v/v) TFA at 1 mL/min and was monitored at 214 nm. Turnover of the limiting substrate was kept at <10%. Stock solutions of the test compounds were all prepared in ddH2O. The integrated product and substrate HPLC peak areas were then used to determine the initial velocities for the sirtuin-catalyzed deacylation reaction at different concentrations of a test compound (5, 6, 7, or 8). The initial velocity-concentration data were analyzed with KaleidaGraph® (Synergy Software, Reading, PA, USA) and the data were fitted to the Michaelis-Menten equation to obtain the kinetic parameters kcat and KM, as recorded in Table 2 and Table 3.

His6-SIRT2, 297 nM = assay: 50 mM Hepes (pH 8.0), 137 mM NaCl, 2.7 mM KCl, 1 mM MgCl2, 1 mM DTT, β-NAD^+ 0.5 mM; conditions: human, 37 °C, up to 2 min
[2] = system: His6-SIRT1 or GST-SIRT1, 243 nM; assay: as above; conditions: human, 37 °C, up to 5 min
His6-SIRT3, 739 nM = assay: 50 mM Hepes (pH 8.0), 137 mM NaCl, 2.7 mM KCl, 1 mM MgCl2, 1 mM DTT, β-NAD^+ 3.5 mM; conditions: human, 37 °C, up to 2 min
pronase = pronase solution in 100 mM Tris HCl (pH 7.3) (8 ng/µL); conditions: Streptomyces griseus, 37 °C, up to 60 min

| fragment found (pronase) | Compound | KM [1] | kcat [1] | cleaved bond (His6-SIRT2, 297 nM) | cleaved bond [2] | cleaved bond (His6-SIRT3, 739 nM) |
| --- | --- | --- | --- | --- | --- | --- |
| – | CSCC[C@H](NC(=O)[C@@H]1CCCCNC(=O)CNC(=O)CCCCCCC(=O)NCC(=O)NCCCC[C@H](NC(C)=O)C(=O)N[C@@H](CCCCN)C(=O)N[C@@H](CCCCNC(C)=O)C(=O)N1)C(N)=O [Compound 5] (Ac-KKK(Ac)KM-NH2; linker 1-4 via Suberoyl(Gly)2) | 22.2 ± 1.8 µM | 35.6 ± 5.1 10^−3, s^−1 | – | – | – |
| – | CSCC[C@H](NC(=O)[C@@H]1CCCCNC(=O)CCC(=O)NCCCC[C@H](NC(C)=O)C(=O)N[C@@H](CCCCN)C(=O)N[C@@H](CCCCNC(C)=O)C(=O)N1)C(N)=O [Compound 6] (Ac-KKK(Ac)KM-NH2; linker 1-4 via Suc) | 41.3 ± 1.83 µM | 25.9 ± 2.3 10^−3, s^−1 | – | – | – |
| – | CCCCCCCCCCCCCC(=O)NCCCC[C@@H]1NC(=O)[C@H](CCCNC(=N)N)NC(=O)[C@@H](NC(C)=O)CCCCNC(=O)CCCCCCC(=O)NCCCC[C@@H](C(=O)N[C@H](C(N)=O)[C@@H](C)O)NC1=O [Compound 7] (Ac-KRK(Myristoyl)KT-NH2; linker 1-4 via Suberoyl) | 2.85 ± 0.13 µM | 5.8 ± 0.1 10^−3, s^−1 | – | – | – |
| – | CC(=O)NCCCC[C@@H]1NC(=O)[C@H](CCCCN)NC(=O)[C@@H](NC(C)=O)CCCCNC(=O)CNC(=O)CCCCCCC(=O)NCC(=O)NCCCC[C@@H](C(N)=O)NC1=O [Compound 8] (Ac-KKK(Ac)K-NH2; linker 1-4 via Suberoyl(Gly)2) | 42.2 ± 17.5 µM | – | – | – | – |
| – | CH3CONH-Lys-Arg-(N^ε-myristoyl-Lysine)-Lys-Thr-NH2, side chains of Lys1 and Lys4 bridged by suberoyl (read from the drawn structure) | – | – | SIRT2-catalyzed deacylation of N^ε-myristoyl-lysine | SIRT1-catalyzed deacylation of N^ε-myristoyl-lysine | SIRT3-catalyzed deacylation of N^ε-myristoyl-lysine |
| 5a | CH3CONH-Lys-Lys-(N^ε-acetyl-Lysine)-Lys-Met-NH2, side chains of Lys1 and Lys4 bridged by Gly-suberoyl-Gly (read from the drawn structure) | – | – | SIRT2-catalyzed deacylation of N^ε-acetyl-lysine | SIRT1-catalyzed deacylation of N^ε-acetyl-lysine | SIRT3-catalyzed deacylation of N^ε-acetyl-lysine |
| – | CH3CONH-Lys-Lys-(N^ε-acetyl-Lysine)-Lys-Met-NH2, side chains of Lys1 and Lys4 bridged by succinyl (read from the drawn structure) | – | – | SIRT2-catalyzed deacylation of N^ε-acetyl-lysine | SIRT1-catalyzed deacylation of N^ε-acetyl-lysine | SIRT3-catalyzed deacylation of N^ε-acetyl-lysine |
| – | CH3CONH-Lys-Lys-(N^ε-acetyl-Lysine)-Lys-NH2, side chains of Lys1 and Lys4 bridged by Gly-suberoyl-Gly (read from the drawn structure) | – | – | SIRT2-catalyzed deacylation of N^ε-acetyl-lysine | SIRT1-catalyzed deacylation of N^ε-acetyl-lysine | SIRT3-catalyzed deacylation of N^ε-acetyl-lysine |

Reference: PMC6384901 (Molecules, 2019)
